Several values for one entry are separate records, joined by “and”; a condition that tells them apart may be missing. Equal values may be shown once. Read-outs that look alike come from different tables or passages of the source. Marks after values point to notes of the source that are not given here. Values belong to the compound of their own block, whether it stands above or below them.
Assays:
[1] = 1H NMRD profiles and 17O NMR relaxometry in water; type: physicochemical; details: for q: number of coordinated water molecules
Method: The magnetic‐field dependence of the longitudinal relaxation rate of water protons (^1H NMRD) were measured in aqueous solution by using a variable field relaxometer equipped with an HTS‐110 3T Metrology Cryogen‐free Superconducting Magnet (Mede, Italy), operating in the overall range of proton Larmor frequencies of 20–120 MHz (0.47–3.00 T). The measurements were performed using the standard inversion recovery sequence (20 experiments, 3 scans) with a 90° pulse width of 3.5 µs. The temperature was controlled with a Stelar VTC‐91 heater airflow. Additional points in the 0.01–10 MHz frequency range were collected on a Fast‐Field Cycling (FFC) Stelar SmarTracer Relaxometer. T 1 values at 500 MHz were collected on a Bruker Avance III NMR spectrometer operating at 11.7 T. The concentration of Gd^3+ in the solutions was determined by using bulk magnetic susceptibility (BMS) shift measurements performed at 11.7 T. For the measurements in the biological fluid, lyophilized plasma matrix (Siemens Healthcare) was added to 1 mL of [Gd(ent‐L2)] (1.0 mM) or Seronorm (Sero) was solubilized in 5 mL [Gd(ent‐L2)] (1.0 mM) solution. ^1H NMRD of the final solution was measured at 310 K.
The spectra were acquired on a Bruker Avance III spectrometer (11.7 T) using a 5 mm probe under temperature control. An aqueous solution of the complexes ([GdL] = 10–15 mM) was enriched to ca. 2.0% of the ^17O isotope (Cambridge Isotope). The transverse relaxation rates (R 2) were measured as a function of temperature in the 278−350 K range. The simultaneous fit of ^1H NMRD and ^17O NMR profiles data was performed using the Micromath Scientist software (version 2.0, Salt Lake City, UT, USA).

[2] = Kinetic inertness: dissociation of Gd(III)-complexes in 0.01–1.0 M HCl followed by HPLC; type: physicochemical; details: for k d at pH = 7.4: dissociation rate calculated at pH 7.4, 25 °C; for k1: proton-assisted dissociation, [H+]≤0.15 M: [Na+]+[H+]=0.15 M
From the text: The kinetic inertness of the Gd(III)‐complexes with the different isomers formed by rac‐L1 and rac‐L2 was characterized by the rates of the dissociation reactions taking place in 0.01–1.0 M HCl solution. The dissociation reactions were followed by measuring the integral values of the Gd(III)‐complexes with the different isomers of rac‐L1 and rac‐L2 ligands with HPLC. The conditions of the HPLC experiments for the kinetic studies of the Gd(III)‐complexes with rac‐L1 and rac‐L2 ligands are summarized in Tables S1 and S2 (Supporting Information), respectively. The samples were kept at 25 °C in a well‐closed vessel. For the HPLC analysis, 100 µL samples were withdrawn from the solutions. The measurements were performed with 0.2 mM solution of Gd(III)‐complexes. The pseudo‐first‐order rate constants (k d) were calculated by fitting the HPLC integral – t data pairs to Equation (1). (1) At=Ar−Ave^−kdt+Av where A r, A v, and A t are the integral values of the reactants, the product, and reaction time t. The temperature was maintained at 25 °C and the ionic strength of the solutions was kept constant at [H^+]≤0.15 M, [HCl]+[NaCl] = 0.15 M. The calculation of the kinetic parameters was performed by the fitting of the absorbance – time and relaxation rate – time data pairs with the Micromath Scientist computer program (version 2.0, Salt Lake City, UT, USA).
The dissociation reactions of Gd(III)-complexes with the different isomers formed by rac-L1 and rac-L2 have been studied by HPLC method (Tables S1 and S2) at 25 °C in 0.01 – 1.0 M HCl solution to guarantee the pseudo-first-order kinetic condition. Area values as a function of time for the dissociation reactions of Gd(III)-complexes formed with the different stereoisomers of rac-L1 obtained at 25 °C in 1.0 M HCl solution are shown in Figure S48.
In the presence of HCl excess, the decomplexation of Gd(III)-complexes can be treated as a pseudo-first-order process and the reaction rate can be expressed by Equation (S9), where kd is a pseudo-first-order rate constant, [GdL]t and [GdL]tot are the concentrations of the GdL species at time t and the total concentration of the complex, respectively.
The rates of the dissociation reactions have been studied at different concentrations of HCl ([HCl]=0.01 – 1.0 M, 25 °C). The kd values obtained for the Gd(III)-complexes with the different isomers of rac-L1 and rac-L2 ligands as a function of [H^+] are shown in Figures S49 and S50.
The obtained kd pseudo-first order rate constants are directly proportional to the concentration of H^+. The increase in the kd values with increasing concentration of H^+ can be interpreted in terms of the proton assisted dissociation of Gd(III)-complexes. […] The proton assisted dissociation of Gd(III)-complexes might be explained by the equilibrium formation of a protonated *Gd(HL) intermediate (Equation (S11)), which dissociates spontaneously (Equation (12)).
where k0, and k1 = kGdHL×K^HGdHL are the rate constants characterizing the spontaneous and proton-assisted dissociation of Gd(III)-complexes. The protonation constant (K^HGdHL) of Gd(DOTA)-like complexes are very small (Gd(DOTA): K^HGdHL =14).^[22] By considering very low protonation constant of Gd(III)-complexes with A, C and D isomers of rac-L1 and A’, C’ and D’ isomers of rac-L2 ligands (K^HGdHL<<10), the denominator of Equation (S14) (1>> K^HGdHL [H^+]) can be neglected, so Equation (S14) can be simplified in the form of Equation (S15). The k0 and k1 values of the Gd(III) complexes with A, C and D isomers of rac-L1, and A’, C’ and D’ isomers of rac-L2 ligands have been calculated by fitting of the kinetic data (Figures S49 and S50) to Equation (S15).
The k1 rate and logK^HGdHL protonation constants characterizing the acid-catalyzed decomplexation of Gd(III)-complexes formed with the different stereoisomers of rac-L1 and rac-L2 are presented and compared with those of [Gd(PCTA)], [Gd(DOTA)]^-, [Gd(HP-DO3A)] and [Gd(BT-DO3A)] in Table S19.

[3] = 0.15 M NaCl, 25 °C; cited from earlier work
[4] = 25 °C, cited from earlier work
[5] = 0.15 M NaCl, 25 °C; cited from earlier work; remark: listed apart in the source
[6] = Relaxivity at 21 / 400 MHz and 25 °C in 0.15 M NaCl; type: physicochemical; details: 400 MHz
Method: The relaxivity values were calculated from the longitudinal relaxation time of H2O protons (T 1) measured at 21 MHz on a Stelar relaxometer connected to a Bruker WP80 NMR electromagnet adapted to variable‐field measurements (15−80 MHz proton Larmor frequency). The temperature of the sample holder was controlled with a thermostatted air stream. The longitudinal relaxation time was measured with the “inversion recovery” method (180° – τ – 90°) by using 12 different τ values with typical 90° pulse width of 6.4 µs, 4 scans. The measurements were performed with 1 mM solution of the Gd(III)‐complexes with rac‐L1, ent‐L1, rac‐L2, and ent‐L2 ligands, so the relaxivity values were given as r 1 = […] where T 1p and T 1w were the relaxation time of bulk water protons in the presence and absence of paramagnetic species, respectively. The variable pH relaxivity measurements of Gd(III)‐complexes with rac‐L1, ent‐L1, rac‐L2, and ent‐L2 ligands could be carried out by direct titration of the samples in the pH range 2.5–9.0 (21 MHz, 25 °C, 0.15 M NaCl). The pH was adjusted by stepwise addition of concentrated NaOH or HCl solution.
The stability constant of Gd(III)‐complexes with rac‐L2 and ent‐L2 ligands were determined by the measurement of the proton relaxation rates (r 1) studying the competition reaction of rac‐L2 and ent‐L2 ligands with AAZTA for Gd(III) ion at pH = 4.0 in 0.15 M NaCl solution. In these experiments, the concentration of Gd^3+, rac‐L2, and ent‐L2 ligands was 2.0 mM, while that of the AAZTA was varied between 1.0 and 6.0 mM (5 × 1.5 mL samples). The pH was adjusted to pH 4.0 by stepwise addition of concentrated NaOH or HCl solutions. The samples were kept at 70 °C for a month and then at 25°C for two months in order to attain the equilibrium (the time needed to reach the equilibria was determined by ^1H‐NMR relaxometry). ^1H‐NMR relaxometric measurement of Gd(III) – rac‐L2 – AAZTA and Gd(III) – ent‐L2 – AAZTA systems were performed with a Bruker Avance III 400 (9.4 T) equipped with BB inverse z gradient probe (5 mm). The longitudinal relaxation time (T 1) was measured with the “inversion recovery” method (180° – τ – 90°) by using 12 different τ values with typical 90° pulse width of 12.0 µs, 4 scans at 298 K. The stability constants of [Gd(rac‐L2)] and [Gd(ent‐L2)] complexes were calculated by considering the protonation constants of AAZTA ligand and the stability constant of [Gd(AAZTA)]^− complex (AAZTA: logK 1 ^H = 10.06, logK 2 ^H = 6.50, logK 3 ^H = 3.77, logK 4 ^H = 2.33, logK 5 ^H = 1.51; [Gd(AAZTA)]^−: logK GdL = 18.93, 0.15 M NaCl, 25 °C).^[ [47] ^] The equilibrium constants were calculated with the program PSEQUAD.^[ [48] ^]

- τ R ([1]; Table 2): 98 ± 2 ps
- τ R ([1]; Table S20, 298 K): 98±2 ps
- ER ([1]; fixed in the fitting procedure): 22^b) kJ mol^-1
- q ([1]; fixed in the fitting procedure): 2
- q ([1]; fixed in the fitting procedure, listed as [Gd(rac-L1)]^3-): 2^b)
- τ M1 ([1]; residence time of coordinated water 1, 298 K): 103 ± 5 ns
- τ M2 ([1]; residence time of coordinated water 2, 298 K): 14 ± 2 ns
Compound: O=C([O-])CCC(C(=O)[O-])N1CCN(C(CCC(=O)[O-])C(=O)[O-])Cc2cccc(n2)CN(C(CCC(=O)[O-])C(=O)[O-])CC1.[Gd+3] (mixture of isomers) [[Gd(rac‐L1)]^3−] [2,2’,2’’-[3,6,9,15-tetraazabicyclo[9.3.1]pentadeca-1(15),11,13-triene-3,6,9-triyl]tris(4-carboxybutanoate)gadolinium]
- ^298K r 1 [1.5 T] ([1]; 298 K, 1.5 T, water): 9.4 mM⁻¹ s⁻¹
- r 1 ^310K [1.5 T] ([1]; 310 K, 1.5 T, water): 6.8 mM⁻¹ s⁻¹

Compound: O=C(O)CCC(C(=O)[O-])N1CCN(C(CCC(=O)O)C(=O)[O-])Cc2cccc(n2)CN(C(CCC(=O)O)C(=O)[O-])CC1.[Gd+3] (racemic) [[Gd(rac-L1)] A (RSR/SRS)]
- k d at pH = 7.4 [2]: 1.84×10^-12 s^−1
- k d at pH = 7.4 ([2]; listed as RSR/SRS (A)): 1.84 × 10^−12 s^−1
- k1 ([2]; 25 °C): (4.6±0.2) ×10^-5 M^-1s^-1

- K^HGd(HL) ([2]; protonation constant of the *Gd(HL) intermediate, 25 °C): 2.0 ± 0.4 M⁻¹
Compound: O=C(O)CCC(C(=O)[O-])N1CCN(C(CCC(=O)O)C(=O)[O-])Cc2cccc(n2)CN(C(CCC(=O)O)C(=O)[O-])CC1.[Gd+3] (racemic) [[Gd(rac-L1)] B (RSS/SRR)]
- k d at pH = 7.4 [2]: 1.28×10^-11 s^−1
- k d at pH = 7.4 ([2]; listed as RSS/SRR (B)): 1.28 × 10^−11 s^−1
- k1 ([2]; 25 °C): (3.2±0.4) ×10^-4 M^-1s^-1

Compound: O=C(O)CCC(C(=O)[O-])N1CCN(C(CCC(=O)O)C(=O)[O-])Cc2cccc(n2)CN(C(CCC(=O)O)C(=O)[O-])CC1.[Gd+3] (racemic) [[Gd(rac-L1)] D (RRS/SSR)]
- k d at pH = 7.4 [2]: 4.95×10^-13 s^−1
- k d at pH = 7.4 ([2]; listed as RRS/SSR (D)): 4.95 × 10^−13 s^−1
- k1 ([2]; 25 °C): (1.2±0.1) ×10^-5 M^-1s^-1

Compound: O=C(CC[C@H](C(=O)[O-])N1CCN([C@@H](CCC(=O)NCC(O)CO)C(=O)[O-])CCN([C@H](CCC(=O)NCC(O)CO)C(=O)[O-])Cc2cccc(n2)C1)NCC(O)CO.[Gd+3] (relative stereo) [[Gd(rac-L2)] A’ (RSR/SRS)]
- k d at pH = 7.4 [2]: 1.85×10^-12 s^−1
- k d at pH = 7.4 ([2]; listed as RSR/SRS (A′)): 1.85 × 10^−12 s^−1
- k1 ([2]; 25 °C): (4.7±0.1) ×10^-5 M^-1s^-1

Compound: CC1(N(CC(=O)O)CC(=O)O)CN(CC(=O)O)CCN(CC(=O)O)C1 [AAZTA]
- logK1^H [3]: 10.06
- logK2^H [3]: 6.50
- logK3^H [3]: 3.77
- logK4^H [3]: 2.33
- logK5^H [3]: 1.51

Compound: O=C([O-])CN1CCN(CC(=O)[O-])Cc2cccc(n2)CN(CC(=O)[O-])CC1.[Eu+3] [[Eu(PCTA)]]
- K^HGd(HL) ([4]; 1.0 M KCl): 1.72 M⁻¹
- k d at pH = 7.4 ([4]; pH 7.4, 1.0 M KCl): 2.0 × 10^−11 ([Eu(PCTA)]) s^−1 and 2.0×10^-11 s^−1

Compound: CC1(N(CC(=O)[O-])CC(=O)[O-])CN(CC(=O)[O-])CCN(CC(=O)[O-])C1.[Gd+3] [[Gd(AAZTA)]^−, reference compound]
- logK GdL [5]: 18.93
- r1p [6]: 6.56 ± 0.08 mM⁻¹ s⁻¹

Compound: CC(O)CN1CCN(CC(=O)[O-])CCN(CC(=O)[O-])CCN(CC(=O)[O-])CC1.[Gd+3] (centres unmarked) [[Gd(HP-DO3A)]]
- k1 ([4]; 0.15 M NaCl): 0.00029 M⁻¹ s⁻¹
- k1 [4]: 0.00026 M⁻¹ s⁻¹
- k d at pH = 7.4 ([4]; pH 7.4, 0.1 M NaCl): 1.0×10^-11 s^−1
- k d at pH = 7.4 ([4]; pH 7.4, 0.15 M NaCl): 1.2×10^-11 s^−1

From publication PMC11984905, “Chiral Switch of Gadopiclenol: New Standards in MRI Probes” (Advanced Science, 2025)
